Reference: patent publication US20120058085A1, “Deuterium Modified Benzimidazoles” (priority 2009, published 2012)
Read-outs that look alike come from different tables or passages of the source.

Assay: Evaluation of Metabolic Stability in Human Liver Microsomes
Format: in vitro ADME
Settings: for percentage increase in half-life in going from clemizole to the test compound, run A / percentage increase in half-life in going from clemizole to the test compound, run B / percentage increase in half-life in going from clemizole to the test compound, run C / percentage increase in half-life in going from clemizole to the test compound, run D / percentage increase in half-life in going from clemizole to the test compound, Average: HLM, relative to clemizole; for half-life: human, microsomes
Experimental: Human liver microsomes (20 mg/mL) are obtained from Xenotech, LLC (Lenexa, KS). β-nicotinamide adenine dinucleotide phosphate, reduced form (NADPH), magnesium chloride (MgCl2), and dimethyl sulfoxide (DMSO) are purchased from Sigma-Aldrich.
Determination of Metabolic Stability: 7.5 mM stock solutions of test compounds are prepared in DMSO. The 7.5 mM stock solutions are diluted to 12.5 μM in acetonitrile (ACN). The 20 mg/mL human liver microsomes are diluted to 0.625 mg/mL in 0.1 M potassium phosphate buffer, pH 7.4, containing 3 mM MgCl2. The diluted microsomes (375 μL) are added to wells of a 96-well deep-well polypropylene plate in triplicate. Ten to 40 μL of the 12.5 μM test compound is added to the microsomes and the mixture is pre-warmed for 10 minutes. Reactions are initiated by addition of 125 μL of pre-warmed NADPH solution. The final reaction volume is 0.5 mL and contains 0.5 mg/mL human liver microsomes, 0.25-1.0 μM test compound, and 2 mM NADPH in 0.1 M potassium phosphate buffer, pH 7.4, and 3 mM MgCl2. The reaction mixtures are incubated at 37° C., and 50 μL aliquots are removed at 0, 5, 10, 20, and 30 minutes and added to shallow-well 96-well plates which contain 50 μL of ice-cold ACN with internal standard to stop the reactions. The plates are stored at 4° C. for 20 minutes after which 100 μL of water is added to the wells of the plate before centrifugation to pellet precipitated proteins. Supernatants are transferred to another 96-well plate and analyzed for amounts of parent compound remaining by LC-MS/MS using an Applied Bio-systems API 4000 mass spectrometer. The same procedure is followed for the non-deuterated counterpart of the compound of Formula I and the positive control, 7-ethoxycoumarin (1 μM). Testing is done in triplicate.
Data analysis: The in vitro half-lives (t1/2s) for test compounds are calculated from the slopes of the linear regression of % parent remaining (In) vs incubation time relationship using the following formula:
in vitro t1/2=0.693/k, where k=-[slope of linear regression of % parent remaining(1n) vs incubation time]
Data analysis is performed using Microsoft Excel Software.
Four separate metabolic stability runs were performed in Human Liver Microsomes (HLM) for clemizole and for test compounds of the invention. […] The values in parenthesis in columns A through D and in the “Average” column indicate the percentage increase in half-life in going from clemizole to the test compound.

[1] = pH 7.4, HLM 0.5 mg/mL, 2 mM NADPH, 37° C., run A, read-out: t½ (min) A
[2] = pH 7.4, HLM 0.5 mg/mL, 2 mM NADPH, 37° C., run B, read-out: t½ (min) B
[3] = pH 7.4, HLM 0.5 mg/mL, 2 mM NADPH, 37° C., run C, read-out: t½ (min) C
[4] = pH 7.4, HLM 0.5 mg/mL, 2 mM NADPH, 37° C., run D, read-out: t½ (min) D
[5] = pH 7.4, HLM, average of runs A-D, read-out: Ave t½

Compound | percentage increase in half-life in going from clemizole to the test compound, run A (run A) | percentage increase in half-life in going from clemizole to the test compound, run B (run B) | percentage increase in half-life in going from clemizole to the test compound, run C (run C) | percentage increase in half-life in going from clemizole to the test compound, run D (run D) | half-life [1] [min] | half-life [2] [min] | half-life [3] [min] | half-life [4] [min] | half-life [5] [min] | percentage increase in half-life in going from clemizole to the test compound, Average (average of runs A-D)
[2H]C([2H])(c1nc2ccccc2n1Cc1ccc(Cl)cc1)N1CCCC1 [Compound 101, 1-(4-Chlorobenzyl)-2-(d2-(pyrrolidin-1-yl)methyl)-1H-benzo[d]imidazole] | (+18%) | (+8%) | (+9%) | (+14%) | 15.9 | 15.2 | 14.4 | 14 | 14.9 | –
[2H]C([2H])(c1nc2ccccc2n1C([2H])([2H])c1ccc(Cl)cc1)N1CCCC1 [Compound 105, 1-(4-Chlorophenyl-d2-methyl)-2-(d2-(pyrrolidin-1-yl)methyl)-1H-benzo[d]imidazole] | (+0.9%) | (+6%) | (+6%) | (+13%) | 13.6 | 14.9 | 14 | 13.9 | 14 | (+6%)
[2H]C([2H])(c1ccc(Cl)cc1)n1c(CN2C([2H])([2H])C([2H])([2H])C([2H])([2H])C2([2H])[2H])nc2ccccc21 [Compound 106] | (+21%) | (+22%) | (+22%) | (+36%) | 16.2 | 17.2 | 16.2 | 16.7 | 16.6 | –
Clc1ccc(Cn2c(CN3CCCC3)nc3ccccc32)cc1 [clemizole, 1-(p-chlorobenzyl)-2-(1-pyrrolidinylmethyl) benzimidazole, reference compound] | – | – | – | – | 13.5 | 14 | 13.3 | 12.3 | 13.3 | –
[2H]C1([2H])CCC([2H])([2H])N1Cc1nc2ccccc2n1Cc1ccc(Cl)cc1 [Compound 104] | (+15%) | (+16%) | (+17%) | (+27%) | 15.5 | 16.3 | 15.5 | 15.6 | 15.7 | –
[2H]C1([2H])N(Cc2nc3ccccc3n2Cc2ccc(Cl)cc2)C([2H])([2H])C([2H])([2H])C1([2H])[2H] [Compound 102, 1-(4-Chlorobenzyl)-2-((2,2,3,3,4,4,5,5-d8-pyrrolidin-1-yl)methyl)-1H-benzo[d]imidazole] | (+41%) | (+38%) | (+32%) | (+36%) | 18.9 | 19.4 | 17.6 | 16.7 | 18.2 | –
[2H]C([2H])(c1nc2ccccc2n1C([2H])([2H])c1ccc(Cl)cc1)N1C([2H])([2H])C([2H])([2H])C([2H])([2H])C1([2H])[2H] [Compound 110, 1-(4-Chlorophenyl-d2-methyl)-2-(d2-(2,2,3,3,4,4,5,5-d8-pyrrolidin-1-yl)methyl)-1H-benzo[d]imidazole] | (+18%) | (+30%) | (+34%) | (+38%) | 15.8 | 18.2 | 17.8 | 17 | 17.2 | –
[2H]C([2H])(c1ccc(Cl)cc1)n1c(CN2CCCC2)nc2ccccc21 [Compound 100, 1-(4-Chlorophenyl-d2-methyl)-2-(pyrrolidin-1-ylmethyl)-1H-benzo[d]imid-azole] | (+2%) | (+0.3%) | (+4%) | (+13%) | 13.7 | 14.1 | 13.8 | 13.8 | 13.9 | (+4%)
